Measurements: article PMC11111691, “Cystine-knot peptide inhibitors of HTRA1 bind to a cryptic pocket within the active site region” (Nature Communications, 2024)
“Also recorded” adds a separate entry of the source. Positions of bridges follow the written chain, without caps; N, C: chain ends. Residues, ends and D or L forms follow the SMILES beside them. No end group written: not given here.

Experiments:
HTRA4^PD/PDZ, HTRA4^FL = biological target: T1, HTRA4^PD/PDZ, HTRA4^FL (Homo sapiens, UniProt P83105); assay: H2-OPT selectivity assay, HTRA4; assay type: biochemical; settings: 6 nM HTRA4^FL, 2 µM CKP; p<0.001 vs DMSO
T1 construct: purchased Abcam (FL form); the PD/PDZ form was made in house in E. coli ab134444
T1 sequence (P83105 32-476): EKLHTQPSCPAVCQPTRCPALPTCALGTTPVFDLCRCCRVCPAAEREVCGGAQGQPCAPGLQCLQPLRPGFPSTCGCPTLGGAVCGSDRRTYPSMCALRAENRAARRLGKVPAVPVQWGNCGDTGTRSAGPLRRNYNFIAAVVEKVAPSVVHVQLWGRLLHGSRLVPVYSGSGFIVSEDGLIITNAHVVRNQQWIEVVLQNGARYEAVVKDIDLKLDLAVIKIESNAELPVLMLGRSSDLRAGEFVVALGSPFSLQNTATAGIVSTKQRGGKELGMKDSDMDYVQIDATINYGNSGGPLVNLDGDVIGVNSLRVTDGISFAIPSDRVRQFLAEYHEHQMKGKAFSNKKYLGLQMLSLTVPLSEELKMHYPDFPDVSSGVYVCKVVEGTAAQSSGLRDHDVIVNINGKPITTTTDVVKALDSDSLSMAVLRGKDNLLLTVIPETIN
Experimental: Assays with the fluorescence-quenched synthetic substrate Mca-IRRVSYSFK(Dnp)K (H2-OPT)[38],[60] were carried out essentially as described. CKP stock solutions in DMSO were diluted in TNC buffer (dilution series for IC50 determinations, or final concentration of 2 µM for selectivity assay or as indicated for HTRA1/4 mutants) and incubated with enzymes in 96-well black optical bottom plates for 60 min at 37 °C. For selectivity experiments we used the 7mer-ABP as inhibitor, which was incubated with the proteases for 15 min at 37 °C. A 10 mM stock solution of H2-OPT in DMSO was diluted with water, prewarmed at 37 °C and then added to the CKP-enzyme mixtures. The final concentrations in the reaction mixtures were: 1 nM HTRA1^FL, 3 nM HTRA1^PD/PDZ, 1 nM HTRA1^PD, 1 nM HTRA2^PD/PDZ, 3 nM HTRA3^FL, 60 nM HTRA3^PD/PDZ, 6 nM HTRA4^FL, 1 µM HTRA4^PD/PDZ, 1 nM mouse HTRA1^PD, 25 nM HTRA1^PD-A202Y, 1 µM HTRA4^PD/PDZ-Y200A, 0.5 mM 7mer-ABP, 5 µM H2-OPT, and 0.25% DMSO. The kinetics of substrate cleavage was measured at 37 °C on a SpectraMax M5 microplate reader with excitation of 328 nm and emission of 393 nm. The determined initial rates of cleavage were expressed as percent of control (DMSO control) after subtracting the baseline rates (without enzyme). IC50 values were determined by Sigmoidal 4PL modeling of multiple data points from serial dilutions of CKPs using Prism 9 software (GraphPad). For selectivity assays with HTRA1-4^PD/PDZ constructs, the specific activities of the enzymes and enzyme:CKP inhibitor ratios were as follows: HTRA1^PD/PDZ, 12560 mRFU/min/nM – 1:667; HTRA2^PD/PDZ, 32300 mRFU/min/nM – 1:2000; HTRA3^PD/PDZ, 962 mRFU/min/nM – 1:33; HTRA4^PD/PDZ, 18 mRFU/min/nM – 1:2.

HTRA1^FL = biological target: T2, HTRA1^FL (Homo sapiens, UniProt Q92743); assay: HTRA1^FL enzyme inhibition assay with synthetic substrate H2-OPT; assay type: biochemical
T2 construct: Human full-length HTRA1 (HTRA1^FL, Q23-P480); made in house; host or cells: Trichoplusia ni cells
T2 sequence (Q92743 23-480): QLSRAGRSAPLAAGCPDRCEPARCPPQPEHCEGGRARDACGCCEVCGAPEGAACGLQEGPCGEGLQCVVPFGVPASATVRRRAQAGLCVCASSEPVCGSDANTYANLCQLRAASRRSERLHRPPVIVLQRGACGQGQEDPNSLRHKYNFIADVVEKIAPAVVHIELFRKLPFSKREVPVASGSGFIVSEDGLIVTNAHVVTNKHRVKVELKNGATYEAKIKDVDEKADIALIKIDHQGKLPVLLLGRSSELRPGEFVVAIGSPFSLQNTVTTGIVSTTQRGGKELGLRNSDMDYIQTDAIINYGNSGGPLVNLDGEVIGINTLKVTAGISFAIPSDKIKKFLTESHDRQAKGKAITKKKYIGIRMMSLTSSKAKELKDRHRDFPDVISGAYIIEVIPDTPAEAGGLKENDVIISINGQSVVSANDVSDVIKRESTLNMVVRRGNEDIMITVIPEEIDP
How it was run: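 CKP or 7mer-ABP preincubated with protease at 37 °C (CKP 60 min; 7mer-ABP 15 min, 2 µM selectivity), then 5 µM Mca-IRRVSYSFK(Dnp)K added in TNC buffer, 0.25% DMSO. Cleavage read kinetically at 37 °C (ex 328/em 393 nm); initial rates as % DMSO control, IC50 by 4PL fit.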

HTRA1^PD(SA) = biological target: T3, HTRA1^PD(SA) (Homo sapiens, UniProt Q92743, S328A); assay: SPR binding kinetics to HTRA1^PD(SA); settings: mean ± S.D. of three or more independent experiments
T3 construct: The protease domains of human HTRA1 (HTRA1^PD; D161-K379); made in house; host or cells: E. coli
T3 sequence (Q92743 161-379 S328A): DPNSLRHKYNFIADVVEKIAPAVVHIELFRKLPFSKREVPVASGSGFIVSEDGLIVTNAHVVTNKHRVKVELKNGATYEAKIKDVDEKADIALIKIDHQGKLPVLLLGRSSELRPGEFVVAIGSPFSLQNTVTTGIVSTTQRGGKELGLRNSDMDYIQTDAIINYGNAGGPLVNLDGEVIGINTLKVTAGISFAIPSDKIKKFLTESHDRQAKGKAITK
Experimental: Surface plasmon resonance (SPR) experiments were performed using a Biacore S200 instrument at 25 °C. His-tagged HTRA proteins were captured on a CM5 sensor chip using the His-capture kit (GE Healthcare). Protein concentrations used for immobilization were as follows; HTRA1^PD(SA), HTRA1^PD and HTRA1^PD-ABP 2 µg/ml with 60-s injections at 10 µl/min, HTRA2^PD/PDZ, HTRA3^PD/PDZ, and HTRA4^PD/PDZ 4 µg/ml with 60-s injections at 10 µl/min. Approximate immobilization levels of HTRA proteins were as follows; HTRA1^PD(SA) 700 RU, HTRA1^PD 900 RU, HTRA1^PD-ABP 900 RU, HTRA2^PD/PDZ 500 RU, HTRA3^PD/PDZ 500 RU, HTRA4^PD/PDZ 500 RU. All CKPs were prepared in HBS-EP buffer (0.01 M HEPES pH 7.4, 0.15 M NaCl, 3 mM EDTA, 0.005% v/v Surfactant P20). All CKP concentrations were injected for 120 s at a flow rate of 30 μl/min. A reference channel was subtracted from the HTRA-captured channel.
Binding kinetics of peptides to HTRA1^PD(SA) were determined by flowing six serial three-fold dilutions of peptide over the HTRA1^PD(SA) immobilized surface using a single cycle kinetics model. CKP maximum concentrations were as follows: 1A7, 1A8, 1C10, 2D5, and 3A7, 300 nM; 1G10-ENI and 1D3-ENI, 100 nM; 3B3, 3000 nM; and CPI, 10,000 nM. Data were analyzed using GE BIA evaluation software using a 1:1 Langmuir binding model. The KD values, calculated from the determined kon and koff values, were the mean ± S.D. of 3–4 independent experiments.

C32 melanoma cells = assay: Cell toxicity assay (CellTiter-Glo), C32; assay type: cell-based, human
Experimental: (§1) reduction at the highest CKP concentration of 50 µM after 72 h (see results below). The absence of cell toxicity is likely due to the inability of the CKPs to penetrate cell membranes, which was experimentally determined in response to another reviewer. Due to space limitations we have not […]
(§2) Protocol of cell toxicity assay (Figure above):
(§3) HeLa cells or C32 melanoma cells were passaged in DMEM media supplemented with 10% FBS, 1% pen-strep and 1x Glutamax using standard culture conditions (5% CO2, 90% humidity at 37°C). At approximately 95% confluence cells were trypsinized, seeded onto 96-well plates (Corning) at 10,000 cells/well and grown for 24 h. Cells were then incubated with the CKPs 3B3, 1D3-ENI and 1G10-ENI (0, 0.6, 1.9, 5.6, 16.7 and 50 µM) at 37°C for 24 h or for 72h. As a positive control we used staurosporine (STS; 1µM). Cell viability was measured using the CellTiter-Glo luminescent cell viability assay (Promega) on an Envision Multilabel plate reader. Average of at least three independent experiments ± S.D. were plotted in Prism 10. Two-way ANOVA was performed on each dataset and compared to no drug samples and no significant viability reductions were observed, except for some treatments at the […]

[1] = MDCK trans-well cell permeability assay; assay type: in vitro ADME, canine; settings: dog, MDCK trans-well (protocol of Chen et al. 2018, canine Mdr1 knockout MDCK I), apical to basolateral, 50 µM CKP, 37C, 5% CO2, HBSS 25 mM HEPES pH 7.4, TOF/MS read-out, n = 4-6, read-out: Papp (apparent permeability)
Experimental: (§4) We carried out a cell permeability study using a MDCK trans-well assay, which is commonly
(§5) used at Genentech for permeability screening of compounds . This assay measures the flux of test
(§6) compound (Papp, apparent permeability) across a MDCK monolayer from the apical to the
(§7) basolateral compartment over a 16 h period.
sensitive mass spectrometry method .
(§8) 10x10-6 cm/s and compounds with Papp values of <1x10-6 cm/s are considered to be of low
Protocol of permeability assay:
(§9) Experiments were carried out as described (Chen et al. Evaluating the utility of canine Mdr1 knockout
(§10) Madin-Darby canine kidney I cells in permeability screening and efflux substrate determination, Mol
(§11) Cells were seeded in 96-well Corning Transwell plates (PET membrane, 1 µm pore size) at 75,000 cells
(§12) per well and grown in DMEM media supplemented with 10% FBS, 1% pen-strep and 1x Glutamax at
(§13) 37C, 5% CO2 for 48 h to ensure monolayer formation. Stock solutions of the three CKPs 1B3, 1D3-ENI
(§14) and 1G10-ENI were diluted in Hank's Balanced Salt solution containing 25 mM HEPES, pH 7.4 and 25
(§15) µM of the monolayer integrity marker lucifer yellow. CKPs at a concentration of 50 µM were added to
(§16) the apical (donor) chamber and the CKP the apparent permeability (Papp) was determined by quantifying
(§17) the amount of CKP in the basolateral (receiver) chamber after 16 h incubation at 37C, 5% CO2. The
(§18) samples from the basolateral chamber were supplemented with the experiment analytical internal standard
(§19) (100 nM propranolol in 50% ACN:50% water with 0.1% formic acid) and then injected in a Sciex Zeno
(§20) TOF 7600 mass spectrometer using TOF/MS mode.

MDCK monolayer = assay: MDCK trans-well cell permeability assay; assay type: in vitro ADME, canine; settings: MDCK trans-well, apical to basolateral, up to 50 µM, 16 h, mass spectrometry
Experimental: as §4, §5, §6, §7
sensitive mass spectrometry method .
as §8
Protocol of permeability assay:
as §9, §10, §11, §12, §13, §14, §15, §16, §17, §18, §19, §20

HeLa cells = assay: Cell toxicity assay (CellTiter-Glo), HeLa; assay type: cell-based; settings: 0.6-50 µM CKP, 24 h and 72 h, at least three independent experiments
Experimental: as §1, §2, §3

CKP stability assay = assay type: physicochemical; settings: chemical stability, PBS containing 0.15% DMSO, 0.3 mM (~1 mg/ml), 37 °C, LC-MS, HPLC UV 220 nm peak area normalized to DMSO peak, two independent experiments, preliminary
Experimental: The CKPs 1G10 and 1G10-ENI were incubated in PBS containing 0.15% DMSO at a concentration of 0.3 mM (~1 mg/ml) at 37 °C for 30 days. Samples from two independently performed experiments were frozen at −20 °C until further analysis. Thawed samples were diluted in H2O and injected into LC-MS (Agilent). From the HPLC UV trace (at 220 nm) the CKP peak area was normalized to the DMSO peak area from the same run. The values obtained from multiple HPLC runs were averaged and shown as dot plot.

[2] = SPR Biacore S200, 25 °C, single cycle kinetics, 1:1 Langmuir model

## CC[C@H](C)[C@H](NC(=O)[C@H](CCC(N)=O)NC(=O)[C@H](CCCNC(=N)N)NC(=O)[C@H](CC(C)C)NC(=O)CNC(=O)[C@H](Cc1c[nH]c2ccccc12)NC(=O)CNC(=O)[C@@H]1CSSC[C@@H]2NC(=O)[C@H](CC(=O)O)NC(=O)[C@H](CC(=O)O)NC(=O)[C@H](Cc3c[nH]cn3)NC(=O)[C@H]([C@@H](C)O)NC(=O)[C@H](CCCCN)NC(=O)[C@@H]3CSSC[C@H](NC(=O)[C@H]([C@@H](C)O)NC(=O)[C@H](CCC(N)=O)NC(=O)[C@H](CSSC[C@H](NC(=O)[C@@H](NC(=O)[C@@H]4CCCN4C(=O)[C@H](CC(=O)O)NC(=O)[C@H](C)NC(=O)[C@@H](N)Cc4c[nH]cn4)[C@@H](C)CC)C(=O)N[C@@H](CC(N)=O)C(=O)N[C@@H](CCCCN)C(=O)N4CCC[C@H]4C(=O)N3)NC(=O)[C@H](Cc3ccccc3)NC(=O)[C@H](Cc3c[nH]c4ccccc34)NC(=O)[C@H](C)NC(=O)CNC(=O)[C@H](CO)NC2=O)C(=O)N[C@@H](Cc2ccc(O)cc2)C(=O)N[C@@H](Cc2ccc(O)cc2)C(=O)N[C@@H](C)C(=O)N[C@@H]([C@@H](C)O)C(=O)N[C@@H](Cc2c[nH]c3ccccc23)C(=O)N[C@@H](CO)C(=O)N1)C(=O)N[C@@H](CC(=O)O)C(N)=O [1A8] (H-HADPICNKPCKTHDDCSGAWFCQTCYYATWSCGWGLRQID-NH2; disulfide 6-22, 10-25, 16-32)
HTRA4^PD/PDZ, HTRA4^FL
  Reduction of HTRA4^FL activity, H2-OPT: 13%
HTRA1^FL
  IC50: 1.9 ± 0.15 nM
HTRA1^PD(SA); [2]
  koff: 0.5 ± 0.1 s-1 x10-4
  kon: 8.2 ± 3.5 M-1 s-1 x104
HTRA1^PD(SA); SPR, calculated from kon and koff, CPI up to 10 µM
  Kd: 0.66 ± 0.42 nM

## CC[C@H](C)[C@H](N)C(=O)N[C@@H](Cc1c[nH]c2ccccc12)C(=O)N1CCC[C@H]1C(=O)N[C@@H](CC(=O)O)C(=O)N1CCC[C@H]1C(=O)N[C@H](C(=O)N[C@H]1CSSC[C@@H]2NC(=O)[C@H](Cc3ccccc3)NC(=O)[C@H](Cc3c[nH]c4ccccc34)NC(=O)[C@H](C)NC(=O)CNC(=O)[C@H](CO)NC(=O)[C@@H]3CSSC[C@@H](C(=O)NCC(=O)N[C@@H](Cc4c[nH]c5ccccc45)C(=O)NCC(=O)N[C@H](C(=O)N[C@@H](CCCNC(=N)N)C(N)=O)[C@@H](C)CC)NC(=O)[C@H](CO)NC(=O)[C@H](Cc4c[nH]c5ccccc45)NC(=O)[C@H](CC(N)=O)NC(=O)[C@H](C)NC(=O)[C@H](Cc4ccc(O)cc4)NC(=O)[C@H](Cc4ccc(O)cc4)NC(=O)[C@H](CSSC[C@H](NC(=O)[C@@H]4CCCN4C(=O)[C@H](CCCCN)NC(=O)[C@H](CC(N)=O)NC1=O)C(=O)N[C@@H](CCC(=O)O)C(=O)N[C@@H]([C@@H](C)O)C(=O)N[C@@H](Cc1c[nH]cn1)C(=O)N[C@@H](CC(=O)O)C(=O)N[C@@H](CC(=O)O)C(=O)N3)NC(=O)[C@H]([C@@H](C)O)NC(=O)[C@H](CCC(N)=O)NC2=O)[C@@H](C)CC [1D3-ENI] (H-IWPDPICNKPCETHDDCSGAWFCQTCYYANWSCGWGIR-NH2; disulfide 7-23, 11-26, 17-33)
C32 melanoma cells; 50 µM CKP, 72 h
  Viability reduction, C32 cells, 72 h: 13%
C32 melanoma cells; 0.6-50 µM CKP, 24 h and 72 h, at least three independent experiments
  Cell viability, C32 melanoma cells: did not appreciably affect cell viability
[1]
  Papp A→B at 16 h, 50 µM: < 0.003 ×10⁻⁶ cm/s
MDCK monolayer
  Cell permeability in the MDCK cell assay: no detectable cell permeability
HeLa cells
  Cell viability, HeLa cells: did not appreciably affect cell viability

## YPVDPICNKPCKTHDDCSGAWFCQTCYYATWSCGWGLRQID-NH2 (disulfide 7-23, 11-26, 17-33) [1G10]
CKP stability assay
  Stability: intact peptide after 30 days: no change in peptide mass at 30 days; also recorded: highly stable
